Data published in patent US8785445B2 (Array BioPharma Inc., priority 2008, dated 2014).
Read-outs that look alike come from different tables or passages of the source.

Biological target: T1, human DP2 (Homo sapiens, UniProt Q9Y5Y4)
T1 construct: expressed in transfected cells; membranes prepared
T1 sequence (Q9Y5Y4 1-395): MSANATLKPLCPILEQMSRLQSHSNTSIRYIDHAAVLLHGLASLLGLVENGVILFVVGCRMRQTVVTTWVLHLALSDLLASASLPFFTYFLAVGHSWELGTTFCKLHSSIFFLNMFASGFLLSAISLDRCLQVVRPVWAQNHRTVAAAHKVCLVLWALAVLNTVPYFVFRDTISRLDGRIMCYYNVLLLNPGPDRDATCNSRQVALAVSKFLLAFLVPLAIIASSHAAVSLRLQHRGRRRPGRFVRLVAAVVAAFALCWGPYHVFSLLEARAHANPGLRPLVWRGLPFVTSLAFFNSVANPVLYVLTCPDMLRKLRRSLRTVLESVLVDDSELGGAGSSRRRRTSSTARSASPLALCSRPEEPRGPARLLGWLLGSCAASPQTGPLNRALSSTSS
Assay: DP-2 binding inhibition assay (3H-PGD2, membranes of DP2-expressing K562 cells)
Method: The coding sequence of human DP2 was introduced into the human Leukemic cell line K562 by electroporation and stable clones expressing DP2 were obtained by limiting dilution followed by cell surface staining with a rat monoclonal antibody specific for human DP2. Membranes were prepared from one of these DP2 expressing clones and used to determine the ability of the compounds of the present invention to inhibit binding of prostaglandin D2 (PGD2) to its receptor DP2 in the presence of one or more of the following serum protein concentrations, 0.1% BSA, 1% HSA or 4% HSA, by the following procedure. […] After incubation for 60 minutes at room temperature, the assay was transferred to a filtration plate (#MAFB; Millipore Corporation, Bedford, Mass.), and washed three times with binding buffer. Radioactivity was measured by a scintillation counter (TopCount; PerkinElmer Life Sciences, Boston, Mass.). Nonspecific binding was determined by incubations in the presence of 1 μM unlabeled PGD2 or 5 μM of a known DP2 antagonist. IC50 values for inhibition of binding were determined for each compound tested from the inflexion point of a standard 4-parameter logistical curve fitted to the values obtained.

[1] = 0.1% BSA, read-out: EC50 (nM) 0.1% BSA
[2] = 1% HSA, read-out: EC50 (nM) 1% HSA
[3] = 4% HSA, read-out: EC50 (nM) 4% HSA

Compound | EC50 [1] | EC50 [2] | EC50 [3]
N#Cc1cc2c(cc1Oc1ccc(C(=O)Nc3ccc(C(F)(F)F)nc3)cc1)OCCC2C(=O)O (stereo not drawn) [Example 6, 7-(4-((6-(Trifluoromethyl)pyridin-3-yl)carbamoyl)phenoxy)-6-cyanochroman-4-carboxylic acid] | 16.9 nM | 524 nM | 
COc1cccc2cc(NC(=O)c3ccc(Oc4cc5c(cc4C#N)C(C(=O)O)CCO5)cc3)cnc12 (stereo not drawn) [Example 7, 6-Cyano-7-(4-(8-methoxyquinolin-3-ylcarbamoyl)phenoxy)chroman-4-carboxylic acid] |  |  | 2070 nM
N#Cc1cc2c(cc1Oc1ccc(C(=O)Nc3ncc4cc(Cl)ccc4n3)cc1)OCCC2C(=O)O (stereo not drawn) [Example 8, 7-(4-(6-Chloroquinazolin-2-ylcarbamoyl)phenoxy)-6-cyanochroman-4-carboxylic acid] |  |  | 695 nM
N#Cc1cc2c(cc1Oc1ccc(C(=O)Nc3cc4ccccc4cn3)cc1)OCCC2C(=O)O (stereo not drawn) [Example 9, 6-Cyano-7-(4-(isoquinolin-3-ylcarbamoyl)phenoxy)chroman-4-carboxylic acid] |  |  | 774 nM
N#Cc1cc2c(cc1Oc1ccc(C(=O)Nc3cnc4ccccc4c3)cc1)OCCC2C(=O)O (stereo not drawn) [Example 10, 6-Cyano-7-(4-(quinolin-3-ylcarbamoyl)phenoxy)chroman-4-carboxylic acid] | 37.8 nM |  | 
N#Cc1cc2c(cc1Oc1ccc(C(=O)NCCc3ccc(C(F)(F)F)cn3)cc1)OCCC2C(=O)O (stereo not drawn) [Example 11] | 47.6 nM | 183 nM | 
N#Cc1cc2c(cc1Oc1ccc(C(=O)NCCc3ccc(C(F)(F)F)nc3)cc1)OCCC2C(=O)O (stereo not drawn) [Example 12, 6-Cyano-7-(4-(2-(6-(trifluoromethyl)pyridin-3-yl)ethylcarbamoyl)phenoxy)chroman-4-carboxylic acid] |  |  | 667 nM
Cc1ccc(-c2cccc(NC(=O)c3ccc(Oc4cc5c(cc4C#N)C(C(=O)O)CCO5)cc3)n2)cc1C (stereo not drawn) [Example 13, 6-Cyano-7-(4-(6-(3,4-dimethylphenyl)pyridin-2-ylcarbamoyl)phenoxy)chroman-4-carboxylic acid] |  |  | 45.1 nM
Cc1cc(C(=O)Nc2ccc(C(F)(F)F)nc2)ccc1Oc1cc2c(cc1C#N)C(C(=O)O)CCO2 (stereo not drawn) [Example 14, 6-Cyano-7-(2-methyl-4-(6-(trifluoromethyl)pyridin-3-ylcarbamoyl)phenoxy)chroman-4-carboxylic acid] | 55.8 nM |  | 
O=C(Nc1cnc2cc(Cl)ccc2n1)c1ccc(Oc2cc3c(cc2Cl)C(C(=O)O)CCO3)cc1 (stereo not drawn) [Example 15, 6-Chloro-7-(4-(6-chloroquinoxalin-2-ylcarbamoyl)phenoxy)chroman-4-carboxylic acid] | 17.9 nM | 207 nM | 409 nM
Cc1cc2ccccc2nc1NC(=O)c1ccc(Oc2cc3c(cc2Cl)C(C(=O)O)CCO3)cc1 (stereo not drawn) [Example 26, 6-Chloro-7-(4-(3-methylquinolin-2-ylcarbamoyl)phenoxy)chroman-4-carboxylic acid] |  |  | 1910 nM
O=C(Nc1cccc(C(F)(F)F)n1)c1ccc(Oc2cc3c(cc2Cl)C(C(=O)O)CCO3)cc1 (stereo not drawn) [Example 28, 6-Chloro-7-(4-(6-(trifluoromethyl)pyridin-2-ylcarbamoyl)phenoxy)chroman-4-carboxylic acid] |  |  | 187 nM
O=C(Nc1ccc(C(F)(F)F)nc1)c1ccc(Oc2cc3c(cc2Cl)C(C(=O)O)CCO3)cc1 (stereo not drawn) [Example 29, 6-Chloro-7-(4-(6-(trifluoromethyl)pyridin-3-ylcarbamoyl)phenoxy)chroman-4-carboxylic acid] | 34.7 nM | 661 nM | 49.5 nM
O=C(Nc1cc(C(F)(F)F)ccn1)c1ccc(Oc2cc3c(cc2Cl)C(C(=O)O)CCO3)cc1 (stereo not drawn) [Example 31, 6-Chloro-7-(4-(4-(trifluoromethyl)pyridin-2-ylcarbamoyl)phenoxy)chroman-4-carboxylic acid] |  |  | 1730 nM
O=C(Nc1cncc(-c2ccccc2)n1)c1ccc(Oc2cc3c(cc2Cl)C(C(=O)O)CCO3)cc1 (stereo not drawn) [Example 32, 6-Chloro-7-(4-(6-phenylpyrazin-2-ylcarbamoyl)phenoxy)chroman-4-carboxylic acid] |  |  | 401 nM

Now from value to compound:

EC50 [1] | EC50 [2] | EC50 [3] | Compound
 |  | 142 nM | O=C(Nc1ccc2cc(C(F)(F)F)ccc2n1)c1ccc(Oc2cc3c(cc2Cl)C(C(=O)O)CCO3)cc1 (stereo not drawn) [Example 16, 6-Chloro-7-(4-(6-(trifluoromethyl)quinolin-2-ylcarbamoyl)phenoxy)chroman-4-carboxylic acid]
 |  | 178 nM | O=C(Nc1ccc2ccc(Cl)cc2n1)c1ccc(Oc2cc3c(cc2Cl)C(C(=O)O)CCO3)cc1 (stereo not drawn) [Example 17, 6-Chloro-7-(4-(7-chloroquinolin-2-ylcarbamoyl)phenoxy)chroman-4-carboxylic acid]
 |  | 185 nM | O=C(Nc1ccc2cc(F)ccc2n1)c1ccc(Oc2cc3c(cc2Cl)C(C(=O)O)CCO3)cc1 (stereo not drawn) [Example 18, 6-Chloro-7-(4-(6-fluoroquinolin-2-ylcarbamoyl)phenoxy)chroman-4-carboxylic acid]
 |  | 210 nM | O=C(Nc1ccc2c(Cl)cccc2n1)c1ccc(Oc2cc3c(cc2Cl)C(C(=O)O)CCO3)cc1 (stereo not drawn) [Example 19, 6-Chloro-7-(4-(5-chloroquinolin-2-ylcarbamoyl)phenoxy)chroman-4-carboxylic acid]
 |  | 255 nM | O=C(Nc1cnc2ccc(Cl)cc2n1)c1ccc(Oc2cc3c(cc2Cl)C(C(=O)O)CCO3)cc1 (stereo not drawn) [Example 20, 6-Chloro-7-(4-(7-chloroquinoxalin-2-ylcarbamoyl)phenoxy)chroman-4-carboxylic acid]
 |  | 265 nM | Cc1cc(NC(=O)c2ccc(Oc3cc4c(cc3Cl)C(C(=O)O)CCO4)cc2)nc2ccccc12 (stereo not drawn) [Example 21, 6-Chloro-7-(4-(4-methylquinolin-2-ylcarbamoyl)phenoxy)chroman-4-carboxylic acid]
 |  | 466 nM | COc1ccc2nc(NC(=O)c3ccc(Oc4cc5c(cc4Cl)C(C(=O)O)CCO5)cc3)ccc2c1 (stereo not drawn) [Example 22, 6-Chloro-7-(4-(6-methoxyquinolin-2-ylcarbamoyl)phenoxy)chroman-4-carboxylic acid]
 |  | 586 nM | O=C(Nc1ccc2ccccc2n1)c1ccc(Oc2cc3c(cc2Cl)C(C(=O)O)CCO3)cc1 (stereo not drawn) [Example 23, 6-Chloro-7-(4-(quinolin-2-ylcarbamoyl)phenoxy)chroman-4-carboxylic acid]
 |  | 764 nM | Cc1cccc2ccc(NC(=O)c3ccc(Oc4cc5c(cc4Cl)C(C(=O)O)CCO5)cc3)nc12 (stereo not drawn) [Example 24, 6-Chloro-7-(4-(8-methylquinolin-2-ylcarbamoyl)phenoxy)chroman-4-carboxylic acid]
 |  | 5980 nM | O=C(Nc1ccc2cccc(Cl)c2n1)c1ccc(Oc2cc3c(cc2Cl)C(C(=O)O)CCO3)cc1 (stereo not drawn) [Example 25, 6-Chloro-7-(4-(8-chloroquinolin-2-ylcarbamoyl)phenoxy)chroman-4-carboxylic acid]
 |  | 173 nM | O=C(Nc1cccc(-c2ccccc2)n1)c1ccc(Oc2cc3c(cc2Cl)C(C(=O)O)CCO3)cc1 (stereo not drawn) [Example 27, 6-chloro-7-(4-(6-phenylpyridin-2-ylcarbamoyl)phenoxy)chroman-4-carboxylic acid]
13 nM | 120 nM | 134 nM | O=C(Nc1ccc2cc(Cl)ccc2n1)c1ccc(Oc2cc3c(cc2Cl)C(C(=O)O)CCO3)cc1 (stereo not drawn) [Example 30, 6-Chloro-7-(4-(6-chloroquinolin-2-ylcarbamoyl)phenoxy)chroman-4-carboxylic acid]
 |  | 30 nM | O=C(Nc1cccc(-c2ccc(Cl)cc2)n1)c1ccc(Oc2cc3c(cc2Cl)C(C(=O)O)CCO3)cc1 (stereo not drawn) [Example 33, 6-Chloro-7-(4-(6-(4-chlorophenyl)pyridin-2-ylcarbamoyl)phenoxy)chroman-4-carboxylic acid]
